Experimental data as given in article PMC4209782 (Biochemical Journal, 2014).

How the values were obtained:
[1] = test system: Akt (Thr308, Ser473) and Akt substrate PRAS40 (Thr246) phosphorylation; assay: Akt and PRAS40 phosphorylation, immunoblot of treated U2OS cells; type: cell-based; conditions: 1 h
Method: (§1) U20S cell line was kindly provided by John Rouse (MRC Protein Phosphorylation and Ubiquitylation Unit, University of Dundee, Dundee, U.K.). Cells were cultured in DMEM (Dulbecco's modified Eagle's medium) supplemented with 10% (v/v) FBS, 2 mM L-glutamine, 100 U/ml penicillin and 0.1 mg/ml streptomycin. cDNA for mouse Hrs (residues 147–223 ×2 joined by a linker) were cloned into a pBABE.puro vector. […] . The virus was harvested 48 h after transfection and applied to U20S cells in the presence of 10 μg/ml polybrene. Cells were selected with 10 μg/ml puromycin before single cell colony selection to identify low expression GFP–FYVEHrs clones. U2OS Flp/In cell line was kindly provided by John Rouse. Cells were cultured in McCoy medium supplemented with 10% (v/v) FBS, 2 mM L-glutamine, 100 U/ml penicillin and 0.1 mg/ml streptomycin. Stable cell lines expressing doxycycline-inducible proteins were generated using the Flp-In™ T-REx™ system (Invitrogen). Stable transfected clones were selected using 0.01 mM hygromycin in cell medium. Protein expression was induced by adding 0.01 mg/ml doxycycline in the medium for 24 h prior to cell lysis. Inhibitor treatment was carried out as described in the Figure legends. The cells were lysed in buffer containing 50 mM Tris/HCl (pH 7.5), 150 mM NaCl, 1 mM EDTA, 1 mM EGTA, 1 mM sodium orthovanadate, 10 mM sodium glycerophosphate, 50 mM sodium fluoride, 10 mM sodium pyrophosphate, 0.27 M sucrose, 0.1% 2-mercaptoethanol, 1 mM benzamidine and 0.1 mM PMSF. Lysates were clarified by centrifugation at 16000 g for 10 min at 4°C. Protein concentration was calculated using Bradford assay (Thermo Scientific). Immunoblotting and immunoprecipitation were performed using standard procedures. The signal was developed using the ECL Western Blotting Detection kit (GE Healthcare) on Hyperfilm ECL film (GE Healthcare).
The following antibodies were raised in sheep, by the DSTT (Division of Signal Transduction Therapy) at the University of Dundee, and affinity-purified against the indicated antigens: anti-Akt1 (S695B, third bleed; raised against residues 466–480 of human Akt1: […]), anti-PRAS40 (proline-rich Akt substrate 40 kDa) (S115B, first bleed; raised against residues 238–256 of human PRAS40: […]), anti-(phospho-PRAS40 Thr^246) (S114B, second bleed; raised against residues 240–251 of human PRAS40: CRPRLNTpSDFQK), anti-NDRG1 (N-Myc downstream-regulated gene-1) (S276B third bleed; raised against full-length human NDRG1) and anti-SGK3 [S037D second bleed; raised against human SGK3 PX domain comprising residues 1–130 of SGK3]. […] Anti-(phospho-SGK hydrophobic motif [Ser^486 in SGK3]) antibody (sc16745) was from Santa Cruz Biotechnology and total SGK1/2 antibody was from Sigma (5188) as was the mouse anti-FLAG antibody. Secondary antibodies coupled to HRP (horseradish peroxidase) were obtained from Thermo Scientific.
. […] (B and C) As in (A) except cells were treated with the indicated doses of the BKM120 class I PI3K inhibitor.

[2] = test system: endosomal PtdIns(3)P (GFP–2×FYVEHrs probe) in U2OS cells; assay: GFP–2×FYVEHrs probe localization on endosomes, fixed U2OS cells; type: cell-based; conditions: for loss of endosomal localization of GFP–2×FYVEHrs: 1 h
Method: U20S cell line was kindly provided by John Rouse (MRC Protein Phosphorylation and Ubiquitylation Unit, University of Dundee, Dundee, U.K.). […] The virus was harvested 48 h after transfection and applied to U20S cells in the presence of 10 μg/ml polybrene. Cells were selected with 10 μg/ml puromycin before single cell colony selection to identify low expression GFP–FYVEHrs clones. U2OS Flp/In cell line was kindly provided by John Rouse. Cells were cultured in McCoy medium supplemented with 10% (v/v) FBS, 2 mM L-glutamine, 100 U/ml penicillin and 0.1 mg/ml streptomycin. Stable cell lines expressing doxycycline-inducible proteins were generated using the Flp-In™ T-REx™ system (Invitrogen). Stable transfected clones were selected using 0.01 mM hygromycin in cell medium. Protein expression was induced by adding 0.01 mg/ml doxycycline in the medium for 24 h prior to cell lysis. Inhibitor treatment was carried out as described in the Figure legends. The cells were lysed in buffer containing 50 mM Tris/HCl (pH 7.5), 150 mM NaCl, 1 mM EDTA, 1 mM EGTA, 1 mM sodium orthovanadate, 10 mM sodium glycerophosphate, 50 mM sodium fluoride, 10 mM sodium pyrophosphate, 0.27 M sucrose, 0.1% 2-mercaptoethanol, 1 mM benzamidine and 0.1 mM PMSF. Lysates were clarified by centrifugation at 16000 g for 10 min at 4°C. Protein concentration was calculated using Bradford assay (Thermo Scientific). Immunoblotting and immunoprecipitation were performed using standard procedures. The signal was developed using the ECL Western Blotting Detection kit (GE Healthcare) on Hyperfilm ECL film (GE Healthcare).
Cells were cultured on glass coverslips and processed for immunocytochemistry using standard protocols. […] For experiments quantifying co-localization of SGK3–GFP with EEA1 (early endosome antigen 1) and localization GFP–FYVEHrs in response to inhibitor treatment, cells were permeabilized via one freeze–thaw cycle in liquid nitrogen and subsequently fixed. […]
The average cell fluorescence was calculated by dividing total fluorescence of each field by the number of the cells in the field. […]

[3] = test system: endosomal PtdIns(3)P (GFP–2×FYVEHrs probe) in U2OS cells; assay: GFP–2×FYVEHrs probe localization, live imaging (time-lapse) in U2OS cells
Method: (§2) Cells were cultured on glass coverslips and processed for immunocytochemistry using standard protocols. […] For experiments quantifying co-localization of SGK3–GFP with EEA1 (early endosome antigen 1) and localization GFP–FYVEHrs in response to inhibitor treatment, cells were permeabilized via one freeze–thaw cycle in liquid nitrogen and subsequently fixed. The following primary antibodies were used: rabbit anti-EEA1 (1:500 dilution; Life Technologies) and mouse anti-GFP (1:1000 dilution; Life Technologies) antibodies. […] Imaging was conducted using a Nikon Eclipse Ti-S microscope (×40 objective) or a Zeiss LSM710 laser scanning confocal microscope [×63 Plan-Apochromat oil immersion objective; 1.40 NA (numerical aperture)] as described in the Figure legends. Time-lapse microscopy was carried out on the same microscope using a heated incubator, heated stage plate and CO2 controller (Pecon) to maintain the cells.
Images were acquired every 0.5 min up to 60 min. Inhibitors were added after acquiring two images, except for VPS34-IN1 that was added after the first image taken. Post-acquisition, image analysis was conducted with Volocity 6.3 (PerkinElmer).
(§3) Time-lapse microscopy was performed on Zeiss 710 microscope using ×63 objective. […] The cells were fixed with 4% paraformaldehyde and images were taken using Zeiss 710 microscope at ×63 objective.

[4] = test system: SGK3 phosphorylation (Thr320, Ser486); assay: SGK3 T-loop and hydrophobic motif phosphorylation, immunoblot of treated U2OS cells; type: cell-based; conditions: for SGK3 T-loop and hydrophobic motif phosphorylation: 1 h, U2OS, immunoblot
Method: as §1, with “Healthcare). […]” for “Healthcare).”

[5] = test system: NDRG1 phosphorylation at Thr346; assay: NDRG1 Thr346 phosphorylation, immunoblot of treated U2OS cells; type: cell-based; conditions: 1 h
Method: as §1, with “The cells were lysed in buffer containing 50 mM Tris/HCl (pH 7.5), 150 mM NaCl, 1 mM EDTA, 1 mM EGTA, 1 mM sodium orthovanadate, 10 mM sodium glycerophosphate, 50 mM sodium fluoride, 10 mM sodium pyrophosphate, 0.27 M sucrose, 0.1% 2-mercaptoethanol, 1 mM benzamidine and 0.1 mM PMSF. Lysates were clarified by centrifugation at 16000 g for 10 min at 4°C.” left out, “Immunoblotting and immunoprecipitation were performed using standard procedures. The signal was developed using the ECL Western Blotting Detection kit (GE Healthcare) on Hyperfilm ECL film (GE Healthcare).” left out

SGK3 = SGK3 kinase activity after immunoprecipitation from inhibitor-treated U2OS cells (Crosstide assay); type: cell-based
[6] = test system: PtdIns(3,4,5)P3/PtdIns(3,4)P2 (GFP–PHAkt1 probe) in U2OS cells; assay: IGF1-induced plasma membrane recruitment of GFP–PHAkt1 in U2OS cells; conditions: 1 μM VPS34-IN1 or 0.5 μM GDC-0941 for 1 h, IGF 100 ng/ml 15 min
Method: as §2, §3

[7] = test system: Dundee panel of 140 protein kinases; assay: Dundee protein kinase profiling panel; conditions: 1 μM, 140 kinases
Method: (C) Protein kinase profiling of the VPS34-IN1 at a single concentration of 1 μM carried out against the Dundee panel of 140 protein kinases at the International Centre for Protein Kinase Profiling. […] Abbreviations and assay conditions used for each kinase are defined at http://www.kinase-screen.mrc.ac.uk.

[8] = test system: SGK3 localization on endosomes in U2OS cells; assay: SGK3–GFP endosomal localization, time-lapse microscopy in U2OS cells
Method: as §2
Images were acquired every 0.5 min up to 60 min. […] Post-acquisition, image analysis was conducted with Volocity 6.3 (PerkinElmer).
Images were taken using a Nicon Eclipse Ti-S microscope with ×40 objective (upper panel). […] Pictures were taken with Zeiss 710 microscope using ×100 objective. Mander's correlation coefficient in 112 cells was calculated using the Volocity 6.3 program. […] Time-lapse microscopy was performed on Zeiss 710 microscope using ×63 objective. Representative images are shown and similar results were obtained in two experiments.

[9] = test system: panel of 19 lipid kinases (includes class I PI3Ks); assay: Dundee lipid kinase profiling panel; type: biochemical; conditions: 1 μM
SGK2 = SGK2 kinase activity after immunoprecipitation from inhibitor-treated U2OS cells; conditions: 1 h, U2OS expressing SGK2
Method: In vitro kinase activity of SGK3 and SGK2 was assayed by measuring [γ-^32P]ATP incorporation into Crosstide substrate peptide [[sequence]]. SGK3 with a C-terminal FLAG-tag was immunoprecipitated from doxycycline-induced U2OS Flp/In cell lines. Immunoprecipitates were washed in sequence with lysis buffer containing high salt concentration (500 mM NaCl), lysis buffer and buffer A (50 mM Tris/HCl, pH 7.5, and 0.1 mM EGTA). Reactions were carried in 40 μl of total volume containing 0.1 mM [γ-^32P]ATP (400–1000 c.p.m./pmol), 10 mM magnesium acetate and 30 μM Crosstide peptide. Reactions were terminated by adding 10 μl of 0.1 mM EDTA and spotting 40 μl of the reaction mixture on P81 paper which were immediately immersed into 50 mM orthophosphoric acid. Papers were washed several times in 50 mM orthophosphoric acid, rinsed in acetone and air dried. Radioactivity was quantified by Cerenkov counting. One unit of enzyme activity was defined as the amount of enzyme that catalyses incorporation of 1 nmol of [γ-^32P]ATP into the substrate over 1 min.
The cells were lysed and SGK3 immunoprecipitated with anti-FLAG antibody. […]

[10] = test system: ProQinase panel of 300 protein kinases; assay: ProQinase protein kinase profiling panel; type: biochemical; conditions: 1 μM, 300 kinases
Description: Supplementary Figure Legends
technology. The assay conditions are described at
activity in DMSO control.

[11] = test system: 4EBP1 phosphorylation (Thr37, Thr46 and Ser65); assay: 4E-BP1 phosphorylation (mTORC1 sites), immunoblot of treated U2OS cells; type: cell-based; conditions: AZD8055 0.1 μM
Method: as §1, with “Healthcare). […]” for “Healthcare).”

Vps34 = conditions: cited from earlier work

CC(C)(O)CNc1ncc(-c2ccnc(Nc3ccnc(Cl)c3)n2)c(CC2CC2)n1 [VPS34-IN1, 1-[{2-[(2-chloropyridin-4yl)amino]-4′-(cyclopropylmethyl)-[4,5′-bipyrimidin]-2′-yl}amino]-2-methyl-propan-2-ol]
Akt phosphorylation at Ser473 and Thr308 [1]: had no effect
phosphorylation of Akt substrate PRAS40 (Thr246) [1]: had no effect
effect on GFP–2×FYVEHrs localization ([2]; 0.01 μM): weak effect
loss of endosomal localization of GFP–2×FYVEHrs ([2]; 0.1 μM): ~ 50%
loss of endosomal localization of GFP–2×FYVEHrs ([2]; 1.0 μM): ~ 80%
time to near maximal dispersal of endosomal GFP–2×FYVEHrs ([3]; 1 μM, live imaging, U2OS): ≤ 2 min
time to significant dispersal of endosomal GFP–2×FYVEHrs ([3]; 1 μM, live imaging, U2OS): ≤ 1 min
time until dispersal of endosome-localized GFP–2×FYVEHrs is essentially complete ([3]; live cell imaging, U2OS): 60 to 120 s
SGK3 T-loop and hydrophobic motif phosphorylation [4]: commensurate decrease
loss of SGK3 phosphorylation ([4]; within 1 min): 50–60%
NDRG1 phosphorylation at Thr346 [5]: only affected moderately
reduction in SGK3 activity (SGK3; 0.1 μM VPS34-IN1, 1 h, U2OS): ~ 40%
reduction in SGK3 activity (SGK3; 1 μM VPS34-IN1, 1 h, U2OS): ~ 60%
time to 50% reduction of SGK3 activity (SGK3; 1 μM VPS34-IN1, time course): ≤ 15 s
time to maximal suppression of SGK3 activity (SGK3; 1 μM VPS34-IN1, time course): ≤ 1 min
decrease in SGK3 activity on VPS34-IN1 treatment (SGK3; U2OS, concentration not given): 50–60%
time to nearly maximal reduction in SGK3 activity and phosphorylation (SGK3; VPS34-IN1, as stated in Discussion): ≤ 30 s
effect on IGF1-induced plasma membrane recruitment of GFP–PHAkt1 [6]: had no impact
inhibition of protein kinases, Dundee panel [7]: did not significantly inhibit
time to dispersal of SGK3 from the endosomes ([8]; 1 μM, time-lapse, U2OS): ≤ 1 min
time until dispersal of endosome-localized GFP–SGK3 is essentially complete ([8]; live cell imaging, U2OS): 60 to 120 s
inhibition of lipid kinases, Dundee panel [9]: did not significantly inhibit
inhibition of SGK2 activity (SGK2): did not inhibit
inhibition of protein kinases, ProQinase panel [10]: did not significantly inhibit

CNc1nc(-c2ccc3c(N)n[nH]c3c2)cc(N2C[C@@H](C(=O)NC3CCCCC3)CC[C@H]2C)n1 [GSK2334470, reference compound]
SGK3 T-loop and hydrophobic motif phosphorylation [4]: near basal levels
SGK3 activity after PDK1 inhibitor (SGK3; 1 μM, 1 h, U2OS): near basal levels

CS(=O)(=O)N1CCN(Cc2cc3nc(-c4cccc5[nH]ncc45)nc(N4CCOCC4)c3s2)CC1 [GDC-0941, 2-(1H-indazol-4-yl)-6-(4-methanesulfonyl-piperazin-1-ylmethyl)-4-morpholin-4-yl-t hieno[3,2-d]pyrimidine, reference compound]
Akt phosphorylation at Ser473 and Thr308 [1]: near basal levels
phosphorylation of Akt substrate PRAS40 (Thr246) [1]: near basal levels
phosphorylation of 4EBP1 at sites phosphorylated by mTORC1 [11]: lack of effect
effect on endosomal localization of GFP–2×FYVEHrs ([3]; 0.5 μM GDC-0941 alone or with 1 μM VPS34-IN1, up to 60 min, live imaging): had no effect
NDRG1 phosphorylation at Thr346 [5]: significantly suppressed
effect on SGK3 activity and phosphorylation at 1 min (SGK3; 0.5 μM GDC-0941, 1 min time point): little effect
time to near maximal inhibition of SGK3 activity (SGK3; 0.5 μM GDC-0941, time course): 2 min
effect on IGF1-induced plasma membrane recruitment of GFP–PHAkt1 [6]: blocked
effect on SGK3 localization on endosomes ([8]; 0.5 μM GDC-0941 alone or with 1 μM VPS34-IN1, time-lapse): did not change significantly
inhibition of Vps34 (Vps34): do not inhibit

COc1ccc(-c2ccc3c(N4CCOC[C@@H]4C)nc(N4CCOC[C@@H]4C)nc3n2)cc1CO [AZD8055]
phosphorylation of 4EBP1 at sites phosphorylated by mTORC1 [11]: marked dephosphorylation

Nc1cc(C(F)(F)F)c(-c2cc(N3CCOCC3)nc(N3CCOCC3)n2)cn1 [BKM120]
Akt phosphorylation at Ser473 and Thr308 [1]: near basal levels
phosphorylation of Akt substrate PRAS40 (Thr246) [1]: near basal levels
phosphorylation of 4EBP1 at sites phosphorylated by mTORC1 [11]: lack of effect
inhibition at 0.5 µM (SGK3; Homo sapiens, U2OS, 1 h, read-out: inhibition of SGK3 activity by class I PI3K inhibitor): ~40%
inhibition of Vps34 (Vps34): do not inhibit
